As a reminder, the IC50 is the concentration that inhibits the measured activity by half. The term GI50 denotes the concentration at which growth is held to half of that of the control.

Here are results for 5 molecules from patent publication US9890166B2, “Imidazopyrrolidine derivatives and their use in the treatment of disease” (NOVARTIS AG, priority 2013, dated 2018).

A value given as a limit tells only on which side of the number the result lay.

Assay [1] addresses BRD4 (His-Brd4(44-477)) (Homo sapiens (Human), UniProt O60885). The assay is described as follows: TR-FRET in-vitro binding assay for BRD4. Particulars: single determination or n ≧ 2 independent determinations, read-out: Biochemical IC50 BRD4. An outline of the steps: (§1)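 In this TR-FRET format, each compound was tested as an 8-point dilution series, single point per concentration, dispensed from 90% DMSO solution. Incubation lasted 35 minutes at 30° C.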
On the technique in general: TR-FRET usually uses a lanthanide donor and a delayed reading to cut background.

The target of assay [2] is BRD2 (His-Brd2(60-472)) (Homo sapiens (Human), UniProt P25440). The assay is described as follows: TR-FRET in-vitro binding assay for BRD2. The note with it: single determination or n ≧ 2 independent determinations, read-out: Biochemical IC50 BRD2. An outline of the steps: as §1
For assay [3], the target named is BRD3 (His-Brd3(20-477)) (Homo sapiens (Human), UniProt Q15059). Kind of assay: TR-FRET in-vitro binding assay for BRD3. The note with it: single determination or n ≧ 2 independent determinations, read-out: Biochemical IC50 BRD3. An outline of the steps: as §1
Assay [4] has as its target CREBBP bromodomain (His-CREBBP(1081-1197)) (Homo sapiens (Human), UniProt Q92793). Kind of assay: AlphaScreen in-vitro binding assay for CREBBP. The note with it: single determination or n ≧ 2 independent determinations, read-out: Biochemical IC50 CREBBP. In a few lines:
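Detection used nickel-chelate acceptor plus streptavidin donor AlphaScreen beads, 1 h room temperature. Percent inhibition fitted by non-linear regression to IC50.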
Background: In Alpha technology, singlet oxygen from a donor bead excites a nearby acceptor bead.

The target in assay [5] is nuclear BRD4-NUT foci in HCC2494 NUT midline carcinoma cells (Homo sapiens, UniProt O60885). The assay is described as follows: cell-based.
Assay [6] relates to THP-1 cells. Kind of assay: Cell growth inhibition assay (CellTiter-Glo), THP-1.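 For all read-outs here: viability read as cellular ATP luminescence after 4 days, 3-fold dilution series from 10 µM, DMSO vehicle-treated cells taken as 100%, cell-free medium wells as −100%.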 The note with it: for GI50: Homo sapiens, THP-1, read-out: THP-1 GI50; for THP-1 TGI: THP-1 cells, total growth inhibition, CellTiter-Glo. For orientation: Cellular ATP, detected with luciferase, serves as a proxy for viable cell number.
Assay [7] relates to K-562 cells. Kind of assay: Cell growth inhibition assay (CellTiter-Glo), K-562.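 For all read-outs here: cellular ATP measured by luminescence after 4 days of exposure, 3-fold dilution series from 10 µM, DMSO vehicle-treated cells define 100%, cell-free medium wells −100%.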 Particulars: for GI50: Homo sapiens, K562, read-out: K-562 GI50; for K-562 TGI: K-562 cells, total growth inhibition, CellTiter-Glo.
The subject of assay [8] is MV-4-11 cells. Kind of assay: Cell growth inhibition assay (CellTiter-Glo), MV-4-11.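 For all read-outs here: cellular ATP luminescence after 4 days, 3-fold dilution series from 10 µM top dose, vehicle (0.1% DMSO) set to 100%, cell-free medium set to −100%, day 0 corrected.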 Particulars: for GI50: Homo sapiens, MV4-11, read-out: MV-4-11 GI50; for MV-4-11 TGI: MV-4-11 cells, total growth inhibition, CellTiter-Glo.

CREBBP bromodomain (His-CREBBP(1081-1197)), sequence (Q92793 1081-1197): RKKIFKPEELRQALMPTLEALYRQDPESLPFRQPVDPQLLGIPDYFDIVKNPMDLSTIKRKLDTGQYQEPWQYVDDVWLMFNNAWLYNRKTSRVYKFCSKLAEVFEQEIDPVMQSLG
BRD2 (His-Brd2(60-472)), sequence (P25440 60-472): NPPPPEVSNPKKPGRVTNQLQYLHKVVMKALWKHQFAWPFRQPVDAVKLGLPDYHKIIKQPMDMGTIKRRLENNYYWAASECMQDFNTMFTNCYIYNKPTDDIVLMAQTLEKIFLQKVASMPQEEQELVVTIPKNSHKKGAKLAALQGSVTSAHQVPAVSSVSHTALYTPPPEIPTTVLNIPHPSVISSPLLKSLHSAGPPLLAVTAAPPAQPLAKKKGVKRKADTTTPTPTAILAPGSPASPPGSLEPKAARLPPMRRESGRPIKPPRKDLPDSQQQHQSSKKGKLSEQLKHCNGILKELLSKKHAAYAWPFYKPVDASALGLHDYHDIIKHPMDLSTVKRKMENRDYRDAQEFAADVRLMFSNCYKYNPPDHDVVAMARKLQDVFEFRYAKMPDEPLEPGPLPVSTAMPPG
BRD3 (His-Brd3(20-477)), sequence (Q15059 20-477): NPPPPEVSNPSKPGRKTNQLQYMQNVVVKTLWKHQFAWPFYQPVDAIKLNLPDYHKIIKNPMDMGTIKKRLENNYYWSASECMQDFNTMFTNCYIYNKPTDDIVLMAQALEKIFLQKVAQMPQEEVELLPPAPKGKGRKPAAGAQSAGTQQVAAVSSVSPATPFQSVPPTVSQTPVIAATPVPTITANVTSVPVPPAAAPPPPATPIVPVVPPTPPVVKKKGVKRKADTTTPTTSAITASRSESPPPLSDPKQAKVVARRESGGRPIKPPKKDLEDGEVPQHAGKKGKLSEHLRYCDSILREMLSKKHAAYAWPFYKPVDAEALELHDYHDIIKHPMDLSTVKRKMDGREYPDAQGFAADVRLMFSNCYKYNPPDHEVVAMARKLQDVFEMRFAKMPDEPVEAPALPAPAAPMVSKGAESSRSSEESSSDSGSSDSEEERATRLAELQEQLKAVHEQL

`COc1ncc(-c2nc3c(n2C(C)C)C(c2ccc(Cl)cc2)N(c2cc(C)c4nnc(C)n4c2)C3=O)c(OC)n1` (stereo not shown) [Example 10, 6-(4-chlorophenyl)-2-(2,4-dimethoxypyrimidin-5-yl)-5-(3,8-dimethyl-[1,2,4]triazolo[4,3-a]pyridin-6-yl)-1-isopropyl-5,6-dihydropyrrolo[3,4-d]imidazol-4(1H)-one]: the IC50 in assay [1] stood at 45 nM; in assay [2], 60 nM; in assay [3], 59 nM; in assay [4], 6.3 µM; in assay [5], 180 nM. Moreover, the 50% growth inhibitory concentration (GI50) turned out to be 158 nM in assay [6], 326 nM in assay [7] and 29.7 nM in assay [8]. In addition, the “THP-1 TGI” value in assay [6] is 0.302 µM. For the same molecule, the “K-562 TGI” value in assay [7] is more than 10 µM. Also, the “MV-4-11 TGI” value in assay [8] was 0.0785 µM.
Regarding `Cc1cc(N2C(=O)c3nc(C4=CCOC4)n(C(C)C)c3C2c2ccc(Cl)cc2)cn2c(C)nnc12` (stereo not shown) [Example 11, 6-(4-chlorophenyl)-2-(2,5-dihydrofuran-3-yl)-5-(3,8-dimethyl-[1,2,4]triazolo[4,3-a]pyridin-6-yl)-1-isopropyl-5,6-dihydropyrrolo[3,4-d]imidazol-4(1H)-one], the IC50 came out at 18 nM in assay [1]; 41 nM in assay [2]; 25 nM in assay [3]; 5.7 µM in assay [4]; 110 nM in assay [5]. In addition, the 50% growth inhibitory concentration (GI50) in assay [6] was determined as 90.9 nM; in assay [7], 330 nM; in assay [8], 48.5 nM. Further, the “THP-1 TGI” value in assay [6] is 0.2025 µM. Also, the “K-562 TGI” value in assay [7] is more than 10 µM. For the same molecule, the “MV-4-11 TGI” value in assay [8] amounted to 0.09775 µM.
Take `Cc1cc(N2C(=O)c3nc(C4=CCCN(C)C4)n(C(C)C)c3C2c2ccc(Cl)cc2)cn2c(C)nnc12` (stereo not shown) [Example 12, 6-(4-chlorophenyl)-5-(3,8-dimethyl-[1,2,4]triazolo[4,3-a]pyridin-6-yl)-1-isopropyl-2-(1-methyl-1,2,5,6-tetrahydropyridin-3-yl)-5,6-dihydropyrrolo[3,4-d]imidazol-4(1H)-one]: the 50% inhibitory concentration (IC50) in assay [1] is 20 nM; in assay [2], 43 nM; in assay [3], 21 nM; in assay [4], 8.9 µM; in assay [5], 374 nM. Besides, the 50% growth inhibitory concentration (GI50) in assay [6] came out at 264 nM; in assay [7] it was 1040 nM; in assay [8], 42.2 nM. For the same molecule, the “THP-1 TGI” value in assay [6] was 0.715 µM. Further, in assay [7], the “K-562 TGI” value was more than 10 µM. For the same molecule, in assay [8], the “MV-4-11 TGI” value was found to be 0.07845 µM.
In the case of `Cc1cc(N2C(=O)c3nc(C4=CCOCC4)n(C(C)C)c3C2c2ccc(Cl)cc2)cn2c(C)nnc12` (stereo not shown) [Example 14, 6-(4-chlorophenyl)-2-(3,6-dihydro-2H-pyran-4-yl)-5-(3,8-dimethyl-[1,2,4]triazolo[4,3-a]pyridin-6-yl)-1-isopropyl-5,6-dihydropyrrolo[3,4-d]imidazol-4(1H)-one], the 50% inhibitory concentration (IC50) in assay [1] is 16 nM; in assay [2], 33 nM; in assay [3] it was 15 nM; in assay [4], 2.3 µM; in assay [5], 40.9 nM. In addition, the concentration for 50% growth inhibition (GI50) in assay [6] was found to be 66 nM; in assay [7] it was 203 nM; in assay [8], 20.4 nM. Also, the “THP-1 TGI” value in assay [6] amounted to 0.12 µM. For the same molecule, the “K-562 TGI” value in assay [7] is more than 10 µM. In addition, in assay [8], the “MV-4-11 TGI” value is 0.0388 µM.
On to `Cc1cc(N2C(=O)c3nc(-c4ncco4)n(C(C)C)c3C2c2ccc(Cl)cc2)cn2c(C)nnc12` (stereo not shown) [Example 15, 6-(4-chlorophenyl)-5-(3,8-dimethyl-[1,2,4]triazolo[4,3-a]pyridin-6-yl)-1-isopropyl-2-(oxazol-2-yl)-5,6-dihydropyrrolo[3,4-d]imidazol-4(1H)-one], for which the IC50 in assay [1] stood at 37 nM; in assay [2] it was 48 nM; in assay [3] it was 41 nM; in assay [4] it was 16.1 µM; in assay [5] it was 80 nM. For the same molecule, the values for the 50% growth inhibitory concentration (GI50) in assay [6], in assay [7] and in assay [8] were 71.9 nM, 318 nM and 42 nM, respectively. The “THP-1 TGI” value in assay [6] stood at 0.132 µM. Further, the “K-562 TGI” value in assay [7] was more than 10 µM. Besides, the “MV-4-11 TGI” value in assay [8] came out at 0.08625 µM.
